Measured values: PubChem BioAssay AID256 (DTP/NCI, 2004)
Several values for one entry are separate records, joined by “and”; a condition that tells them apart may be missing. Equal entries are not always repeated. Toxic doses and inconclusive results are not listed. The calls were made as follows: active = survival T/C of 150% or more; inactive = T/C below 125% in these data.

Tested on: CD2F1 mice, L1210 leukemia ip, survival T/C
Experiment: NCI In Vivo Anticancer Drug Screen. Data for tumor model L1210 Leukemia (intraperitoneal) in CD2F1 (CDF1) mice
Settings: endpoint: mean survival time, higher = longer survival
Outline: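 Antitumor effect is scored in animals hosting a serially transplanted tumor. Values compare compound-dosed animals against vehicle-only controls as a simple quotient.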

[1] = dose: 100.0 mg/kg/injection, schedule: Q04DX002 (ip), vehicle: saline with Tween-80
[2] = dose: 200.0 mg/kg/injection, schedule: Q04DX002 (ip), vehicle: saline with Tween-80
[3] = dose: 400.0 mg/kg/injection, schedule: Q04DX002 (ip), vehicle: saline with Tween-80
[4] = dose: 100.0 mg/kg/injection, schedule: Q01DX001 (ip), vehicle: saline with Tween-80
[5] = dose: 200.0 mg/kg/injection, schedule: Q01DX001 (ip), vehicle: saline with Tween-80
[6] = dose: 400.0 mg/kg/injection, schedule: Q01DX001 (ip), vehicle: saline with Tween-80
[7] = dose: 25.0 mg/kg/injection, schedule: Q04DX003 (ip), vehicle: saline with Tween-80
[8] = dose: 100.0 mg/kg/injection, schedule: Q04DX003 (ip), vehicle: saline with Tween-80
[9] = dose: 50.0 mg/kg/injection, schedule: Q04DX002 (ip), vehicle: saline with Tween-80
[10] = dose: 25.0 mg/kg/injection, schedule: Q01DX009 (ip), vehicle: Klucel (hydroxypropylcellulose) (HPC)
[11] = dose: 100.0 mg/kg/injection, schedule: Q01DX009 (ip), vehicle: saline with Tween-80
[12] = dose: 200.0 mg/kg/injection, schedule: Q01DX009 (ip), vehicle: saline with Tween-80
[13] = dose: 400.0 mg/kg/injection, schedule: Q01DX009 (ip), vehicle: saline with Tween-80
[14] = dose: 6.25 mg/kg/injection, schedule: Q04DX003 (ip), vehicle: saline with Tween-80
[15] = dose: 200.0 mg/kg/injection, schedule: Q04DX003 (ip), vehicle: saline with Tween-80
[16] = dose: 400.0 mg/kg/injection, schedule: Q04DX003 (ip), vehicle: saline with Tween-80

Measured: T/C

O=C(O)C1C(=O)CC2(O)c3ccccc3-c3ccccc3C12 (stereo unspecified)
inactive: dose: 100.0 mg/kg/injection, schedule: Q01DX001 (ip), vehicle: Klucel (hydroxypropylcellulose) (HPC) 98 % of control | [1] 96 % of control | dose: 200.0 mg/kg/injection, schedule: Q01DX001 (ip), vehicle: Klucel (hydroxypropylcellulose) (HPC) 94 % of control | [2] 93 % of control | dose: 400.0 mg/kg/injection, schedule: Q01DX001 (ip), vehicle: Klucel (hydroxypropylcellulose) (HPC) 94 % of control | [3] 93 % of control

OC(C/C(=N\Nc1ccccc1)c1ccc(Br)cc1)(C(F)(F)F)C(F)(F)F
inactive: [4] 96 % of control | [5] 95 % of control | [6] 97 % of control

c1cc2[nH]c3ccncc3c2cn1
inactive: dose: 50.0 mg/kg/injection, schedule: Q01DX009 (ip), vehicle: saline sonified 98 % of control | dose: 100.0 mg/kg/injection, schedule: Q01DX009 (ip), vehicle: saline sonified 101 % of control

CN(C)Cc1cc(Cl)cc(CN(C)C)c1O
inactive: [7] 105 % of control | dose: 50.0 mg/kg/injection, schedule: Q04DX003 (ip), vehicle: saline with Tween-80 97 % of control | [8] 101 % of control

O=C(O)c1nc2ccccc2c(=O)[nH]1
inactive: [9] 93 % of control | [4] 102 % of control | [1] 93 % of control | [5] 92 % of control | [2] 93 % of control

Cc1ccc2c(ccc(CC(=S)[S-])[n+]2C)c1
inactive: dose: 6.25 mg/kg/injection, schedule: Q01DX009 (ip), vehicle: Klucel (hydroxypropylcellulose) (HPC) 97 % of control and 107 % of control | dose: 12.5 mg/kg/injection, schedule: Q01DX009 (ip), vehicle: Klucel (hydroxypropylcellulose) (HPC) 94 % of control and 109 % of control | [10] 93 % of control | dose: 50.0 mg/kg/injection, schedule: Q01DX009 (ip), vehicle: Klucel (hydroxypropylcellulose) (HPC) 91 % of control and 95 % of control | dose: 100.0 mg/kg/injection, schedule: Q01DX009 (ip), vehicle: Klucel (hydroxypropylcellulose) (HPC) 90 % of control and 96 % of control

CCOC(=O)c1c(NC(=O)CBr)sc(C)c1C
inactive: dose: 75.0 mg/kg/injection, schedule: Q01DX001 (ip), vehicle: saline 104 % of control | dose: 150.0 mg/kg/injection, schedule: Q01DX001 (ip), vehicle: saline 98 % of control | dose: 300.0 mg/kg/injection, schedule: Q01DX001 (ip), vehicle: saline 104 % of control

CCCC(=O)c1cccc([N+](=O)[O-])c1
inactive: dose: 100.0 mg/kg/injection, schedule: Q01DX001 (ip), vehicle: other 96 % of control | dose: 100.0 mg/kg/injection, schedule: Q04DX002 (ip), vehicle: other 98 % of control | dose: 100.0 mg/kg/injection, schedule: Q04DX003 (ip), vehicle: other 103 % of control | dose: 200.0 mg/kg/injection, schedule: Q01DX001 (ip), vehicle: other 93 % of control | dose: 200.0 mg/kg/injection, schedule: Q04DX002 (ip), vehicle: other 100 % of control | dose: 200.0 mg/kg/injection, schedule: Q04DX003 (ip), vehicle: other 100 % of control | dose: 400.0 mg/kg/injection, schedule: Q01DX001 (ip), vehicle: other 94 % of control | dose: 400.0 mg/kg/injection, schedule: Q04DX002 (ip), vehicle: other 98 % of control | dose: 400.0 mg/kg/injection, schedule: Q04DX003 (ip), vehicle: other 101 % of control | dose: 800.0 mg/kg/injection, schedule: Q01DX009 (ip), vehicle: other 91 % of control and 94 % of control and 95 % of control

N#Cc1ccc(CO)cc1Br
inactive: dose: 100.0 mg/kg/injection, schedule: Q04DX003 (ip), vehicle: saline 97 % of control | dose: 200.0 mg/kg/injection, schedule: Q04DX003 (ip), vehicle: saline 90 % of control | dose: 400.0 mg/kg/injection, schedule: Q04DX003 (ip), vehicle: saline 92 % of control

NC(=O)N/N=C/C(c1ccccc1)c1ccccc1
inactive: [11] 105 % of control | [12] 94 % of control | [13] 103 % of control

CN(C)CCNC1=C(Cl)C(=O)c2ccccc2C1=O
inactive: [14] 97 % of control | dose: 12.5 mg/kg/injection, schedule: Q04DX003 (ip), vehicle: saline with Tween-80 101 % of control | [7] 91 % of control and 102 % of control

NCc1cn(C2OC(CO)C(O)C2O)c2ncnc(N)c12 (stereo unspecified)
inactive: dose: 3.13 mg/kg/injection, schedule: Q01DX005 (ip), vehicle: water 118 % of control | dose: 6.25 mg/kg/injection, schedule: Q01DX005 (ip), vehicle: water 95 % of control

Cc1ccc(NC(=O)Oc2ccc(Br)cc2)cc1[N+](=O)[O-]
inactive: dose: 50.0 mg/kg/injection, schedule: Q01DX009 (ip), vehicle: saline with Tween-80 98 % of control | [11] 102 % of control | [12] 98 % of control

CC(C)c1ccc(C(O)C2CC2)cc1 (stereo unspecified)
inactive: dose: 50.0 mg/kg/injection, schedule: Q01DX009 (ip), vehicle: saline 100 % of control | dose: 100.0 mg/kg/injection, schedule: Q01DX009 (ip), vehicle: saline 100 % of control | dose: 200.0 mg/kg/injection, schedule: Q01DX009 (ip), vehicle: saline 96 % of control

COc1ccc(/C=C/C(=O)c2ccccc2)cc1Br
inactive: [11] 104 % of control | [8] 97 % of control | [12] 98 % of control | [15] 98 % of control | [13] 101 % of control | [16] 95 % of control

O=C(O)COc1ccc(NC(=O)COc2ccccc2)cc1
inactive: dose: 25.0 mg/kg/injection, schedule: Q01DX001 (ip), vehicle: saline with Tween-80 100 % of control | dose: 50.0 mg/kg/injection, schedule: Q01DX001 (ip), vehicle: saline with Tween-80 97 % of control | [4] 100 % of control

CCNCc1cc(Nc2cc(C)nc(/N=C(\N)Nc3ccc(Cl)c(Cl)c3)n2)ccc1OC
inactive: [10] 100 % of control

O=C1CCCCCCCCC1O (stereo unspecified)
inactive: [8] 102 % of control | [15] 103 % of control | [16] 96 % of control

COC1OC2COC(c3ccccc3)OC2C(OS(C)(=O)=O)C1OS(C)(=O)=O (stereo unspecified)
inactive: [4] 103 % of control | [5] 105 % of control | [6] 101 % of control

CCCC[NH-].CCCC[NH-].O=C(O)CC(=O)O.[Pt+2]
inactive: [14] 96 % of control | [7] 96 % of control | [8] 98 % of control

COc1cc(-c2[nH]c(=S)[nH]c(=O)c2CCO)cc(OC)c1OC
inactive: [8] 98 % of control | [15] 98 % of control | [16] 91 % of control

Oc1ccc(N=Nc2ccccn2)c(O)c1
inactive: [8] 97 % of control | [15] 112 % of control | [16] 93 % of control

CC(=O)NC1(C(=O)O)SCCCS1
inactive: [9] 92 % of control | [1] 100 % of control | [3] 89 % of control

C1=C\CCCCCCCC/1
inactive: [8] 100 % of control | [16] 100 % of control

CCCCCCCCCCCCCCCC[N+]1(CCC)CCSCC1
inactive: [4] 102 % of control | [5] 110 % of control
